# Read-outs that look alike come from different tables or passages of the source.
# Tests used:
# [1] = target: JAK1 (Homo sapiens (Human), UniProt P23458); test: JAK1 enzyme activity assay (Thermo Fisher SelectScreen Z-lyte); format: biochemical; conditions: 1 hour kinase reaction, read-out: JAK1 Inhibition IC50
# Method: The inhibitory potency of candidate compounds of JAK1 done at Thermo Fisher Scientific in their Selectscreen using a Z-lyte assay. The 2×JAK1/Tyr 06 mixture is prepared in 50 mM HEPES pH 6.5, 0.01% BRIJ-35, 10 mM MgCl2, 1 mM EGTA, 0.02% NaN3. The final 10 μL of the Kinase Reaction consists of 21.2-91.5 ng JAK1 and 2 μM Tyr 06 in 50 mM HEPES pH 7.0, 0.01% BRIJ-35, 10 mM MgCl2, 1 mM EGTA, 0.01% NaN3. After the 1 hour Kinase Reaction incubation, 5 μL of a 1:128 dilution of Development Reagent is added.
# (§1) Background signal is defined in the absence of enzyme and uninhibited signal is defined in the presence of vehicle (2% DMSO) alone. Compounds were evaluated in an 11 point dose-response ranging from […] to 0.34 nM. IC50 values of compounds are determined using a 4 parameter logistical fit of emission ratio as a function of the concentration of compound.
# [2] = target: JAK3 (a.a. 781-1124) (Homo sapiens (Human), UniProt P52333); test: JAK3 enzyme activity assay (SRCtide phosphorylation, Caliper); format: biochemical; conditions: 2.5 nM JAK3, 1 μM SRCtide, 1 uM ATP, 40 minutes; read-out: JAK3 Inhibition IC50
# Sequence of JAK3 (a.a. 781-1124) (P52333 781-1124): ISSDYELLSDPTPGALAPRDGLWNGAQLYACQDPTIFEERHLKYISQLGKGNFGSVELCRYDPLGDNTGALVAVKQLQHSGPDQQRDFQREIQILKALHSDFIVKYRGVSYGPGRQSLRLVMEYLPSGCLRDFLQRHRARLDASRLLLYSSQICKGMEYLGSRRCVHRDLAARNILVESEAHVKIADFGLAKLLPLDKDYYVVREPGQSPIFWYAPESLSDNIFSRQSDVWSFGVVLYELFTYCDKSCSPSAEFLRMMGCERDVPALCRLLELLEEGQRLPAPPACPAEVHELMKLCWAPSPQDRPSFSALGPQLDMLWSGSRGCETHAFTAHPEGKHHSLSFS
# Method: The activity of JAK3 (a.a. 781-1124, ThermoFisher) was quantified by measuring the phosphorylation of SRCtide (FAM-GEEPLYWSFPAKKK-NH2). Kinase reactions were run in a 384-well Greiner plate with 2% final DMSO concentration under the buffer conditions of 20 mM HEPES, pH 7.5, 10 mM MgCl2, 0.01% BSA, and 0.0005% Tween-20. The kinase reaction components were 2.5 nM JAK3, 1 μM SRCtide peptide and 1 uM ATP. Examples were tested in dose-response starting at 2 μM (11 concentrations, 3-fold serial dilution, duplicate reactions). The reactions were incubated at room temperature for 40 minutes, then stopped by adding a 1:1 volume of 30 mM EDTA in 20 mM HEPES, pH 7.5 (15 mM EDTA final). After the reaction was stopped, the phosphorylated and unphosphorylated peptides were separated and quantified using a Caliper LC3000/EZ-Reader system and HTS Well Analyzer Software (Caliper, A PerkinElmer Company, Hopkinton, Mass.). GraFit (Erithacus Software Ltd., Horley, U.K.) was used to calculate inhibitor potency by fitting dose-response data to the 4-parameter logistical IC50 equation.
# as §1
# [3] = system: IL-2 stimulated STAT5 phosphorylation on Tyr694 (JAK1/3); test: JAK1/3 cellular target modulation: IL-2 stimulated phospho-STAT5 in PBMC; format: cell-based; conditions: IL-2 25 ng/ml, 1 hour compound preincubation, read-out: IL2-STAT5 Inhibition IC50
# Description: (§2) Target modulation was based upon the ability of a compound to inhibit JAK isoform specific phosphorylation of selected substrates. IL-2 stimulated STAT5 phosphorylation on Tyr694 was used to assess JAK1/3 compound selectivity. GM-CSF stimulated STAT5 phosphorylation on Tyr694 was used to assess JAK2 compound selectivity. IFNγ stimulated STAT1 phosphorylation on Tyr701 was used to assess JAK1/2 compound selectivity. For all three assays, human PBMC from frozen stocks were thawed, pelleted, resuspended in complete media (90% RPMI, 10% heat inactivated FBS, 10 mM HEPES, 47 μM 2-ME, pen/strep) and placed in wells of a 96 well V-bottom plate at 200,000 per well in 120 μl complete media. Compounds were added as 15 μl per well of 10× working stock solutions in complete media with 1% DMSO (or medium with 1% DMSO for controls) and placed on a plate shaker in a 37° C. incubator with 5% CO2 for 1 hour with gentle shaking (setting of 3). Stimulation used the addition of soluble cytokines. For the JAK1/3 phospho-STAT5 assay, 15 μl of 10× working stock recombinant human IL-2 was added to a final concentration of 25 ng/ml. For the JAK2 phospho-STAT5 assay, 15 μl of 10× working stock recombinant human GM-CSF was added to a final concentration of 5 ng/ml. For the JAK1/2 phospho-STAT1 assay, 15 μl of 10× working stock of recombinant human IFNγ was added to a final concentration of 10 ng/ml. Plates were then placed back on the plate shaker in the incubator for an additional 5, 5 and 10 minutes respectively upon which the plates were removed from the incubator, sealed with a plate sealer and the cells pelleted at 400×g for 5 minutes. After pelleting, the media was removed by aspiration and the cells were lysed in ELISA specific cell lysis buffer. The levels of phospho-STAT5 were determined using a Phospho (Tyr694)/Total STAT5a,b Whole Cell Lysate kit from Meso Scale Discovery. Levels of phospho-STAT1 were determined using a CST-PathScan Phospho-STAT1 (Tyr701) Sandwich ELISA kit.
# [4] = system: IFNγ stimulated STAT1 phosphorylation on Tyr701 (JAK1/2); test: JAK1/2 cellular target modulation: IFNγ stimulated phospho-STAT1 in PBMC; format: cell-based; conditions: IFNγ 10 ng/ml, 1 hour compound preincubation, read-out: Infγ-STAT1 IC50
# Description: as §2
# Sequence of JAK1 (P23458 whole entry): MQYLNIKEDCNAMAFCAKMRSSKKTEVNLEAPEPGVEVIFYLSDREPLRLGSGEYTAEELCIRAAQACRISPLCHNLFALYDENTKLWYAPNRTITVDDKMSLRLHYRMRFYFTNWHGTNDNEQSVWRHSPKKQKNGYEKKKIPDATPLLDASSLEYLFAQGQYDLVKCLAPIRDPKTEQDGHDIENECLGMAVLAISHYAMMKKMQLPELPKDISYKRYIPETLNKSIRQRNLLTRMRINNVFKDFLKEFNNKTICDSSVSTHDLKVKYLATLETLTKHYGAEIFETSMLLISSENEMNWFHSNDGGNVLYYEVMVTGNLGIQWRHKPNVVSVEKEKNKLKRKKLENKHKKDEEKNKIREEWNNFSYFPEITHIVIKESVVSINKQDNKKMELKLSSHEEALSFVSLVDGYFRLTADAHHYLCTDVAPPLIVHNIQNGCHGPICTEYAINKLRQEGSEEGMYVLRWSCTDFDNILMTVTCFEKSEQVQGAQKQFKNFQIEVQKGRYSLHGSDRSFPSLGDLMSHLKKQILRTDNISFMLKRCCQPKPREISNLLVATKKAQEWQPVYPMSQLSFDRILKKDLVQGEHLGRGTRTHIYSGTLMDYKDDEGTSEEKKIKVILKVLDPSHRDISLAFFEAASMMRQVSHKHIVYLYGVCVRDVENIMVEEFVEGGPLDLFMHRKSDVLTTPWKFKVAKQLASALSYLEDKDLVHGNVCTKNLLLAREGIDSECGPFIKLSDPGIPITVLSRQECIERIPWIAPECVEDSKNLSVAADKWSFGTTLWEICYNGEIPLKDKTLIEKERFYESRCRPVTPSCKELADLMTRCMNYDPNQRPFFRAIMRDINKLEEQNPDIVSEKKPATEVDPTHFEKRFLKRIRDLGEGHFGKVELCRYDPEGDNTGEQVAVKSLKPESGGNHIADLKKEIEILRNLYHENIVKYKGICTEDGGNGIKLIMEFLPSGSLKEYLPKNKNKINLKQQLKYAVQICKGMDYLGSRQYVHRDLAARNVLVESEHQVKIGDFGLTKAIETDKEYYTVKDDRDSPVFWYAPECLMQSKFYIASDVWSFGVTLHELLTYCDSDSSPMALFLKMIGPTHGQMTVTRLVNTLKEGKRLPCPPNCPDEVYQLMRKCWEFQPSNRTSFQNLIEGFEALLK
SMILES,IC50 [1] [nM],IC50 [2] [nM],"IC50 ([3]; Homo sapiens, PBMC) [nM]","IC50 ([4]; Homo sapiens, PBMC) [nM]",IC50 ([3]; human PBMC) [nM],IC50 ([4]; human PBMC) [nM]
"CCOC(=O)c1cnc2[nH]ccc2c1N[C@H]1CC[C@H](OC(=O)CC#N)C1 (single isomer, unassigned) [Example 74, (trans)-ethyl 4-((3-(2-cyanoacetoxy)cyclopentyl)amino)-1H-pyrrolo[2,3-b]pyridine-5-carboxylate]",10 to 100,10 to 100,–,–,100 to 1000,> 1000
"CCOC(=O)c1cnc2[nH]ccc2c1N[C@@H]1CCCN(C(=O)C(C)C#N)C1 (stereo partly drawn) [Example 129, ethyl 4-(((3R)-1-(2-cyanopropanoyl)piperidin-3-yl)amino)-1H-pyrrolo[2,3-b]pyridine-5-carboxylate]",≤ 10,≤ 10,≤ 100,100 to 1000,–,–
"COCCOC(=O)c1cnc2[nH]ccc2c1N[C@@H]1CCC[C@H](CCC#N)C1 (single isomer, unassigned; enantiomer 2) [Example 150, cis 2-methoxyethyl 4-((3-(2-cyanoethyl)cyclohexyl)amino)-1H-pyrrolo[2,3-b]pyridine-5-carboxylate, enantiomer 2]",≤ 10,≤ 10,≤ 100,100 to 1000,–,–
"CCOC(=O)c1cnc2[nH]ccc2c1N[C@@H]1CC[C@H](C)N(C(=O)CC#N)C1 [Example 146, ethyl 4-(((3R,6S)-1-(2-cyanoacetyl)-6-methylpiperidin-3-yl)amino)-1H-pyrrolo[2,3-b]pyridine-5-carboxylate]",≤ 10,≤ 10,≤ 100,≤ 100,–,–
"CCOC(=O)c1cnc2[nH]ccc2c1N(C)[C@H]1CC[C@H](OC(=O)CC#N)C1 (single isomer, unassigned) [Example 70, (trans)-ethyl 4-((3-(2-cyanoacetoxy)cyclopentyl)(methyl)amino)-1H-pyrrolo[2,3-b]pyridine-5-carboxylate]",10 to 100,100 to 1000,–,> 1000,100 to 1000,–
"CCCOC(=O)c1cnc2[nH]ccc2c1N[C@H]1CN(C(=O)CC#N)CC[C@H]1C [Example 125, propyl 4-(((3R,4R)-1-(2-cyanoacetyl)-4-methylpiperidin-3-yl)amino)-1H-pyrrolo[2,3-b]pyridine-5-carboxylate]",≤ 10,≤ 10,≤ 100,100 to 1000,–,–
"CCOC(=O)c1cnc2[nH]ccc2c1N[C@H]1CCC[C@H](CCC#N)C1 (single isomer, unassigned; enantiomer 2) [Example 138, (trans)-ethyl 4-((3-(2-cyanoethyl)cyclohexyl)amino)-1H-pyrrolo[2,3-b]pyridine-5-carboxylate, enantiomer 2]",10 to 100,≤ 10,100 to 1000,100 to 1000,–,–
"CCOC(=O)c1cnc2[nH]ccc2c1N[C@@H]1CCCN(C(=O)C2(C#N)CC2)C1 [Example 128, ethyl (R)-4-((1-(1-cyanocyclopropane-1-carbonyl)piperidin-3-yl)amino)-1H-pyrrolo[2,3-b]pyridine-5-carboxylate]",10 to 100,≤ 10,≤ 100,> 1000,–,–
"CCOC(=O)c1cnc2[nH]ccc2c1NC1CCC(CCC#N)C1 (single isomer, unassigned; stereoisomer 2) [Example 155, Ethyl 4-((3-(2-cyanoethyl)cyclopentyl)amino)-1H-pyrrolo[2,3-b]pyridine-5-carboxylate, single stereoisomer 2]",100 to 1000,10 to 100,–,–,100 to 1000,> 1000

# Continued, in another order:
IC50 [1] [nM],IC50 [2] [nM],"IC50 ([3]; Homo sapiens, PBMC) [nM]","IC50 ([4]; Homo sapiens, PBMC) [nM]",SMILES,IC50 ([3]; human PBMC) [nM],IC50 ([4]; human PBMC) [nM]
10 to 100,10 to 100,100 to 1000,100 to 1000,"CCOC(=O)c1cnc2[nH]ccc2c1N[C@@H]1CCCN(C(=O)C(C)(C)C#N)C1 [Example 144, ethyl (R)-4-((1-(2-cyano-2-methylpropanoyl)piperidin-3-yl)amino)-1H-pyrrolo[2,3-b]pyridine-5-carboxylate]",–,–
100 to 1000,10 to 100,100 to 1000,> 1000,"COCCOC(=O)c1cnc2[nH]ccc2c1N[C@H]1CCC[C@@H](CCC#N)C1 (single isomer, unassigned; enantiomer 1) [Example 149, cis-2-methoxyethyl 4-((3-(2-cyanoethyl)cyclohexyl)amino)-1H-pyrrolo[2,3-b]pyridine-5-carboxylate, enantiomer 1]",–,–
≤ 10,10 to 100,≤ 100,100 to 1000,"CCOC(=O)c1cnc2[nH]ccc2c1NC1CCC(O)C(CC#N)C1 (centres unmarked) [Example 142, ethyl 4-((3-(cyanomethyl)-4-hydroxycyclohexyl)amino)-1H-pyrrolo[2,3-b]pyridine-5-carboxylate]",–,–
10 to 100,10 to 100,100 to 1000,> 1000,"CC(C)OC(=O)c1cnc2[nH]ccc2c1N[C@H]1CN(C(=O)CC#N)CC[C@H]1C [Example 124, isopropyl 4-(((3R,4R)-1-(2-cyanoacetyl)-4-methylpiperidin-3-yl)amino)-1H-pyrrolo[2,3-b]pyridine-5-carboxylate]",–,–
≤ 10,10 to 100,≤ 100,100 to 1000,"COC(=O)c1cnc2[nH]ccc2c1N[C@H]1CN(C(=O)CC#N)CC[C@H]1C [Example 118, methyl 4-(((3R,4R)-1-(2-cyanoacetyl)-4-methylpiperidin-3-yl)amino)-1H-pyrrolo[2,3-b]pyridine-5-carboxylate]",–,–
10 to 100,≤ 10,100 to 1000,100 to 1000,"COCCOC(=O)c1cnc2[nH]ccc2c1N[C@H]1CCC[C@H](CCC#N)C1 (racemic) [Example 148, racemic, trans-2-methoxyethyl 4-((3-(2-cyanoethyl)cyclohexyl)amino)-1H-pyrrolo[2,3-b]pyridine-5-carboxylate]",–,–
10 to 100,10 to 100,100 to 1000,> 1000,"CCOC(=O)c1cnc2[nH]ccc2c1N(C)[C@H]1CN(C(=O)CC#N)CC[C@H]1C [Example 1, ethyl 4-(((3R,4R)-1-(2-cyanoacetyl)-4-methylpiperidin-3-yl)(methyl)amino)-1H-pyrrolo[2,3-b]pyridine-5-carboxylate]",–,–
≤ 10,≤ 10,100 to 1000,> 1000,"CCCOC(=O)c1cnc2[nH]ccc2c1N[C@H]1CCC[C@@H](CCC#N)C1 (racemic) [Example 139, (rac) (cis) propyl 4-((3-(2-cyanoethyl)cyclohexyl)amino)-1H-pyrrolo[2,3-b]pyridine-5-carboxylate]",–,–
